ChEMBL document CHEMBL4732063, “Ninhydrins inhibit carbonic anhydrases directly binding to the metal ion” (Eur J Med Chem, 2021)

Assays:
Carbonic anhydrase 7 = Carbonic anhydrase 7 (Homo sapiens, UniProt P43166); experiment: Inhibition of recombinant human carbonic anhydrase 7 preincubated with enzyme for 15 mins by phenol red dye based stopped flow CO2 hydration assay
Carbonic anhydrase 1 = Carbonic anhydrase 1 (Homo sapiens, UniProt P00915); experiment: Inhibition of recombinant human carbonic anhydrase 1 preincubated with enzyme for 15 mins by phenol red dye based stopped flow CO2 hydration assay
Sequence of Carbonic anhydrase 1 (P00915 whole entry): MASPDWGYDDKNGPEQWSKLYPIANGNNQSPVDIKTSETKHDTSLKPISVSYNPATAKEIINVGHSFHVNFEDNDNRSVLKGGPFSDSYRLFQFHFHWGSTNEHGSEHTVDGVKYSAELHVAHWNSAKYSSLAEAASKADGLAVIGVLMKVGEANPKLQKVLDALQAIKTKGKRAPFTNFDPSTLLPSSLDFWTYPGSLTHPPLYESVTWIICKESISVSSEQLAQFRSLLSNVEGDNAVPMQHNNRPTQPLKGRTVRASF

Carbonic anhydrase 4 = Carbonic anhydrase 4 (Homo sapiens, UniProt P22748); experiment: Inhibition of recombinant human carbonic anhydrase 4 preincubated with enzyme for 15 mins by phenol red dye based stopped flow CO2 hydration assay
Sequence of Carbonic anhydrase 4 (P22748 whole entry): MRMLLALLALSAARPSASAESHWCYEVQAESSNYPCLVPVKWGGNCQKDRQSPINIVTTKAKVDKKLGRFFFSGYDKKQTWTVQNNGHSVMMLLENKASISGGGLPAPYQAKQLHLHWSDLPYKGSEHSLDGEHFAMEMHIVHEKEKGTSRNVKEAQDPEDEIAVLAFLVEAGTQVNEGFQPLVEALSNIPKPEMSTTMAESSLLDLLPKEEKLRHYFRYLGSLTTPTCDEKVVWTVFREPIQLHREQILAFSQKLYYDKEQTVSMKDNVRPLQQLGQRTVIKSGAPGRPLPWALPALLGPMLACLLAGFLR

Carbonic anhydrase 2 = Carbonic anhydrase 2 (Homo sapiens, UniProt P00918); experiment: Inhibition of recombinant human carbonic anhydrase 2 preincubated with enzyme for 15 mins by phenol red dye based stopped flow CO2 hydration assay
Carbonic anhydrase 9 = Carbonic anhydrase 9 (Homo sapiens, UniProt Q16790); experiment: Inhibition of recombinant human carbonic anhydrase 9 preincubated with enzyme for 15 mins by phenol red dye based stopped flow CO2 hydration assay

Sequence of Carbonic anhydrase 7 (P43166 whole entry): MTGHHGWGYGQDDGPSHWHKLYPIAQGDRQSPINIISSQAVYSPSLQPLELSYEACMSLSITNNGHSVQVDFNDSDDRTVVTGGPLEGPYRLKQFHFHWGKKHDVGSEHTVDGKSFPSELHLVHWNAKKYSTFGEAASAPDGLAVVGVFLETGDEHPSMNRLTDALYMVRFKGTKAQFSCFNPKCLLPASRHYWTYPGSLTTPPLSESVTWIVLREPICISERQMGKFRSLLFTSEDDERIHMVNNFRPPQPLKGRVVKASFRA

Ki (Carbonic anhydrase 7) | Ki (Carbonic anhydrase 1) | Ki (Carbonic anhydrase 4) | Ki (Carbonic anhydrase 2) | Ki (Carbonic anhydrase 9) | SMILES
0.074 µM | 5.38 µM | > 100 µM | 22.7 µM | 2.37 µM | O=C1c2ccccc2C(=O)C1(O)O
 |  | > 100 µM |  | 17.1 µM | O=C1c2cccc(O)c2C(=O)C1(O)O
 |  | > 100 µM |  | 44.3 µM | O=C1c2cccc(F)c2C(=O)C1(O)O
 |  | > 100 µM |  | 1.34 µM | CC(C)Oc1cccc2c1C(=O)C(O)(O)C2=O
 |  | > 100 µM |  | 68.2 µM | COc1ccc(OC)c2c1C(=O)C(O)(O)C2=O
 |  | > 100 µM |  | 54.3 µM | COc1ccc(C(C)C)c2c1C(=O)C(O)(O)C2=O
 |  | > 100 µM |  | 34.1 µM | COc1cccc2c1C(=O)C(O)(O)C2=O

Further lines, the molecule ahead of its results:

SMILES | Ki (Carbonic anhydrase 7) | Ki (Carbonic anhydrase 1) | Ki (Carbonic anhydrase 4) | Ki (Carbonic anhydrase 2) | Ki (Carbonic anhydrase 9)
O=C1c2cc(Br)cc(Br)c2C(=O)C1(O)O |  |  | > 100 µM |  | 2.81 µM
Cc1ccc2c(c1)C(=O)C(O)(O)C2=O |  |  | 84.6 µM |  | 16.8 µM
O=C1c2ccc([N+](=O)[O-])cc2C(=O)C1(O)O |  |  | > 100 µM |  | 29.6 µM
O=C1c2cccc(Br)c2C(=O)C1(O)O |  |  | > 100 µM |  | 61.2 µM
COc1ccc(CNC(=O)CCl)c2c1C(=O)C(O)(O)C2=O |  |  | > 100 µM |  | 8.41 µM
O=C1c2cccc([N+](=O)[O-])c2C(=O)C1(O)O |  |  | > 100 µM |  | 31 µM
COc1cc2c(cc1OC)C(=O)C(O)(O)C2=O |  |  | > 100 µM |  | 30.4 µM
O=C1c2ccc(Br)cc2C(=O)C1(O)O |  |  | 71.3 µM |  | 2.85 µM
Cc1cccc2c1C(=O)C(O)(O)C2=O |  |  | > 100 µM |  | 51.4 µM
COc1ccc2c(c1)C(=O)C(O)(O)C2=O |  |  | 74.3 µM |  | 13.4 µM
O=C1c2ccc(F)cc2C(=O)C1(O)O |  |  | > 100 µM |  | 38.7 µM
O=C1c2ccc(O)cc2C(=O)C1(O)O |  |  | > 100 µM |  | 27.8 µM
O=C1c2c(Br)c(Br)c(Br)c(Br)c2C(=O)C1(O)O |  |  | 39.7 µM |  | 46.7 µM
